Results from ChEMBL document CHEMBL4052714, “Synthesis and antibacterial activity of novel 4″-O-(1-aralkyl-1,2,3-triazol-4-methyl-carbamoyl) azithromycin analogs” (2017).
In brackets after ≈: the same amount, converted by molar mass.

Columns and labels:
Format in all cases: functional
Streptococcus pneumoniae [1] = assay: Potency index, ratio of clarithromycin MIC to compound MIC for erythromycin-resistant Streptococcus pneumoniae AB11 expressing ermB/mefA gene
Streptococcus pneumoniae [2] = assay: Potency index, ratio of clarithromycin MIC to compound MIC for erythromycin-resistant Streptococcus pneumoniae A22072 expressing mefA gene
Streptococcus pneumoniae [3] = assay: Potency index, ratio of azithromycin MIC to compound MIC for erythromycin-resistant Streptococcus pneumoniae A22072 expressing mefA gene
Streptococcus pyogenes [4] = assay: Antibacterial activity against erythromycin-susceptible Streptococcus pyogenes isolate S2
Streptococcus pyogenes [5] = assay: Potency index, ratio of clarithromycin MIC to compound MIC for erythromycin-resistant Streptococcus pyogenes isolate R2
Staphylococcus aureus [6] = assay: Potency index, ratio of azithromycin MIC to compound MIC for erythromycin-susceptible Staphylococcus aureus ATCC 25923
Streptococcus pneumoniae [7] = assay: Potency index, ratio of azithromycin MIC to compound MIC for erythromycin-resistant Streptococcus pneumoniae AB11 expressing ermB/mefA gene
Streptococcus pneumoniae [8] = assay: Antibacterial activity against erythromycin-resistant Streptococcus pneumoniae AB11 expressing ermB/mefA gene
Streptococcus pyogenes [9] = assay: Potency index, ratio of azithromycin MIC to compound MIC for erythromycin-resistant Streptococcus pyogenes isolate R2
Streptococcus pneumoniae [10] = assay: Potency index, ratio of clarithromycin MIC to compound MIC for erythromycin-resistant Streptococcus pneumoniae B1 expressing ermB gene
Streptococcus pneumoniae [11] = assay: Antibacterial activity against erythromycin-resistant Streptococcus pneumoniae A22072 expressing mefA gene
Escherichia coli = assay: Antibacterial activity against Escherichia coli ATCC 25922
Staphylococcus aureus [12] = assay: Antibacterial activity against erythromycin-susceptible Staphylococcus aureus ATCC 25923
Streptococcus pneumoniae [13] = assay: Antibacterial activity against erythromycin-resistant Streptococcus pneumoniae B1 expressing ermB gene
Pseudomonas aeruginosa = assay: Antibacterial activity against Pseudomonas aeruginosa ATCC 27853
Streptococcus pneumoniae [14] = assay: Potency index, ratio of azithromycin MIC to compound MIC for erythromycin-resistant Streptococcus pneumoniae B1 expressing ermB gene
Streptococcus pneumoniae [15] = assay: Antibacterial activity against erythromycin-susceptible Streptococcus pneumoniae ATCC 49619
Staphylococcus aureus [16] = assay: Antibacterial activity against methicillin-susceptible Staphylococcus aureus ATCC 29213
Streptococcus pyogenes [17] = assay: Antibacterial activity against erythromycin-resistant Streptococcus pyogenes isolate R2
Streptococcus pyogenes [18] = assay: Potency index, ratio of azithromycin MIC to compound MIC for erythromycin-susceptible Streptococcus pyogenes isolate S2

| Structure (SMILES) | Ratio (Streptococcus pneumoniae [1]) | Ratio (Streptococcus pneumoniae [2]) | Ratio (Streptococcus pneumoniae [3]) | MIC (Streptococcus pyogenes [4]) | Ratio (Streptococcus pyogenes [5]) | Ratio (Staphylococcus aureus [6]) | Ratio (Streptococcus pneumoniae [7]) | MIC (Streptococcus pneumoniae [8]) | Ratio (Streptococcus pyogenes [9]) | Ratio (Streptococcus pneumoniae [10]) | MIC (Streptococcus pneumoniae [11]) | MIC (Escherichia coli) | MIC (Staphylococcus aureus [12]) | MIC (Streptococcus pneumoniae [13]) | MIC (Pseudomonas aeruginosa) | Ratio (Streptococcus pneumoniae [14]) | MIC (Streptococcus pneumoniae [15]) | MIC (Staphylococcus aureus [16]) | MIC (Streptococcus pyogenes [17]) | Ratio (Streptococcus pyogenes [18]) |
| --- | --- | --- | --- | --- | --- | --- | --- | --- | --- | --- | --- | --- | --- | --- | --- | --- | --- | --- | --- | --- |
| CC[C@H]1OC(=O)[C@H](C)[C@@H](O[C@H]2C[C@@](C)(OC)[C@@H](OC(=O)NCc3cn(Cc4ccc(Cl)cc4)nn3)[C@H](C)O2)[C@H](C)[C@@H](O[C@@H]2O[C@H](C)C[C@H](N(C)C)[C@H]2O)[C@](C)(O)C[C@@H](C)CN(C)[C@H](C)[C@@H](OC(=O)NCc2ccc(OC)cc2)[C@]1(C)O | 1024 - 2048 | 32 - 133 | 32 - 133 | < 0.002 µg/mL | 128 | 31 | 1024 - 2048 | 0.125 µg/mL (≈ 0.108 µM) | 128 | 1024 - 2133 | 0.06 µg/mL (≈ 0.0517 µM) | 16 µg/mL (≈ 13.8 µM) | 0.008 µg/mL (≈ 0.00689 µM) | 0.125 µg/mL (≈ 0.108 µM) | 8 µg/mL (≈ 6.89 µM) | 1024 - 2133 | 0.125 µg/mL (≈ 0.108 µM) | 16 µg/mL (≈ 13.8 µM) | 1 µg/mL (≈ 0.861 µM) | – |
| CC[C@H]1OC(=O)[C@H](C)[C@@H](O[C@H]2C[C@@](C)(OC)[C@@H](OC(=O)NCc3cn(Cc4c(Cl)cccc4Cl)nn3)[C@H](C)O2)[C@H](C)[C@@H](O[C@@H]2O[C@H](C)C[C@H](N(C)C)[C@H]2O)[C@](C)(O)C[C@@H](C)CN(C)[C@H](C)[C@@H](OC(=O)NCc2ccc(OC)cc2)[C@]1(C)O | 1024 - 2048 | 32 - 133 | 32 - 133 | < 0.002 µg/mL | – | – | 1024 - 2048 | 0.25 µg/mL (≈ 0.209 µM) | – | 1024 - 2133 | 0.03 µg/mL (≈ 0.0251 µM) | 16 µg/mL (≈ 13.4 µM) | 0.25 µg/mL (≈ 0.209 µM) | 0.125 µg/mL (≈ 0.105 µM) | 16 µg/mL (≈ 13.4 µM) | 1024 - 2133 | 0.06 µg/mL (≈ 0.0502 µM) | 16 µg/mL (≈ 13.4 µM) | 1 µg/mL (≈ 0.837 µM) | – |
| CC[C@H]1OC(=O)[C@H](C)[C@@H](O[C@H]2C[C@@](C)(OC)[C@@H](OC(=O)NCc3cn(Cc4ccc(Cl)cc4Cl)nn3)[C@H](C)O2)[C@H](C)[C@@H](O[C@@H]2O[C@H](C)C[C@H](N(C)C)[C@H]2O)[C@](C)(O)C[C@@H](C)CN(C)[C@H](C)[C@@H](OC(=O)NCc2ccc(OC)cc2)[C@]1(C)O | 1024 - 2048 | 32 - 133 | 32 - 133 | < 0.002 µg/mL | – | – | 1024 - 2048 | 0.25 µg/mL (≈ 0.209 µM) | – | 1024 - 2133 | 0.125 µg/mL (≈ 0.105 µM) | 16 µg/mL (≈ 13.4 µM) | 0.25 µg/mL (≈ 0.209 µM) | 0.125 µg/mL (≈ 0.105 µM) | 16 µg/mL (≈ 13.4 µM) | 1024 - 2133 | 0.06 µg/mL (≈ 0.0502 µM) | 16 µg/mL (≈ 13.4 µM) | 8 µg/mL (≈ 6.69 µM) | – |
| CC[C@H]1OC(=O)[C@H](C)[C@@H](O[C@H]2C[C@@](C)(OC)[C@@H](OC(=O)NCc3cn(Cc4ccc(Cl)cc4Cl)nn3)[C@H](C)O2)[C@H](C)[C@@H](O[C@@H]2O[C@H](C)C[C@H](N(C)C)[C@H]2O)[C@](C)(O)C[C@@H](C)CN(C)[C@H](C)[C@@H](O)[C@]1(C)O | – | – | 16 | 0.016 µg/mL (≈ 0.0155 µM) | – | – | 1024 | 0.25 µg/mL (≈ 0.242 µM) | – | – | 0.25 µg/mL (≈ 0.242 µM) | 64 µg/mL (≈ 62 µM) | 1 µg/mL (≈ 0.969 µM) | 0.5 µg/mL (≈ 0.484 µM) | 32 µg/mL (≈ 31 µM) | 256 | 0.25 µg/mL (≈ 0.242 µM) | 16 µg/mL (≈ 15.5 µM) | 64 µg/mL (≈ 62 µM) | 12.5 |
| CC[C@H]1OC(=O)[C@H](C)[C@@H](O[C@H]2C[C@@](C)(OC)[C@@H](OC(=O)NCc3cn(Cc4ccc(C)cc4)nn3)[C@H](C)O2)[C@H](C)[C@@H](O[C@@H]2O[C@H](C)C[C@H](N(C)C)[C@H]2O)[C@](C)(O)C[C@@H](C)CN(C)[C@H](C)[C@@H](OC(=O)NCc2ccc(OC)cc2)[C@]1(C)O | 1024 - 2048 | 32 - 133 | 32 - 133 | < 0.002 µg/mL | – | – | 1024 - 2048 | 0.25 µg/mL (≈ 0.219 µM) | – | 1024 - 2133 | 0.03 µg/mL (≈ 0.0263 µM) | 16 µg/mL (≈ 14 µM) | 0.06 µg/mL (≈ 0.0526 µM) | 0.125 µg/mL (≈ 0.11 µM) | 64 µg/mL (≈ 56.1 µM) | 1024 - 2133 | 0.125 µg/mL (≈ 0.11 µM) | 32 µg/mL (≈ 28.1 µM) | 8 µg/mL (≈ 7.01 µM) | – |
